Laboratory results reported in patent publication US20210115401A1, “Methods and Materials for the Generation of Regulatory T Cells” (LIFE TECHNLOGIES AS, priority 2006, published 2021).

Test system: CD4+ T cells
Assay: Surface marker (CD4, CD25, CXCR3) and intracellular FOXP3 analysis of expanded CD4+ T cells
Assay type: cell-based
Method: 1) Isolate CD4+ T cells from peripheral blood or leukopheresis products by the use of Dynal® CD4 Positive isolation kit, Dynal® CD4 Negative Isolation kit, Dynabeads® MyPure™ CD4 T cell kit, or CD4 Microbeads MACS®.
2) Stimulate 1.5×10^6 CD4+ T cells with anti-CD3/CD28 Dynabeads (3:1 bead: T cell ratio) in X-vivo medium with 1000 U/ml IL-4 (optional), 20 U/ml IL-2 and 1 μM final concentration of Rapamycin. Total medium volume should be 1.5 ml per 1.5×10^6 CD4+ T cells in a 24 well plate. The protocol can be scaled up.
3) On day 2, add a 10× concentrate that contains 10,000 U/ml IL-4 (optional) and […]. Add this in a volume that is 10% of the initial culture volume.
4) On day 4, add the cytokine concentrate similar to day 2.
5) On day 6, add the 10× cytokine concentrate again and take an aliquot to count the cells. This is the first time that the culture should be disturbed. Based on the count adjust the cell concentration to 1×10^6 CD4 cell/ml. Split wells and add culture medium containing Rapamycin, 1000 U/ml IL-4 (optional), 20 U/ml IL-2 to maintain cell concentration at 0.5×10^6 cells/ml.
6) From day 7 to day 12 count the cells daily. Split wells and add culture medium containing Rapamycin, 1000 U/ml IL-4 (optional), 20 U/ml IL-2 to maintain the cell concentration at 0.5×10^6 cells/ml. On day 12 the beads are removed using a magnet.
7) On day 14-15 the cells can be analyzed for surface marker expression and functional properties.
CD4+ T cells were isolated from peripheral blood by negative and/or positive isolation as described in Example 1. After expansion with IL-2, +/−IL-4, CD3/CD28 Dynabeads®, with or without Rapamycin the expanded cells were analyzed for various surface markers (CD4, CD25, CD62L, CRTh2, CCR4, CXCR3, CCR7) and for intracellular FOXP3 expression and cytokine secretion. Suppressive capacity was analyzed in standard functional assays as described below.

CO[C@H]1C[C@@H]2CC[C@@H](C)[C@@](O)(O2)C(=O)C(=O)N2CCCC[C@H]2C(=O)O[C@H]([C@H](C)C[C@@H]2CC[C@@H](O)[C@H](OC)C2)CC(=O)[C@H](C)/C=C(\C)[C@@H](O)[C@@H](OC)C(=O)[C@H](C)C[C@H](C)/C=C/C=C/C=C/1C [Rapamycin]
expanded cells expressing high levels of CD25 (CD4+ T cells expanded with CD3/CD28 Dynabeads, IL-2, +/−IL-4 and Rapamycin): Approximately 70% | CD4+CD25+ T cells among expanded cells (flow cytometry, FIG. 2) (CD4+ T cells expanded with rapamycin, 20% in the absence of rapamycin): 80% | cells expressing FOXP3 after expansion (after expansion with or without Rapamycin, freshly isolated CD4+ T cells 10%): 10%
